# In US8058243B2, “Method for treating a brain cancer with ifenprodil” (HSC Research and Development Limited Partnership, priority 2006, dated 2011):
# Counter-ions that a name gives are not always drawn. Like-named read-outs stand apart in the source and are kept apart here.
# Test system: murine neural precursor cells (neurosphere cultures)
# Experiment: HTS of LOPAC library against secondary neurosphere cultures, MTT proliferation assay at 3 μM, day 7 (z score, P value)
# Format: cell-based, mouse
# [1] = LOPAC primary screen, neurosphere MTT proliferation, 3 μM, day 7
# [2] = yes/no: significantly inhibited neurosphere proliferation (P<0.01) in primary screen
# [3] = yes = significantly inhibited neurosphere proliferation (P<0.01) in the primary screen
# [4] = yes/no: significantly inhibited neurosphere proliferation in primary screen
# [5] = yes/no: significantly inhibited neurosphere proliferation (P<0.01) in the primary screen
# [6] = primary LOPAC screen, 3 μM, MTT, neurosphere proliferation
# [7] = LOPAC screen, neurosphere MTT proliferation, 3 μM, day 7
# [8] = yes/no: significantly inhibited neurosphere proliferation in the primary screen
# [9] = LOPAC library screen at 3 μM, secondary neurosphere cultures, MTT
# [10] = LOPAC library screen, 3 μM, MTT, neurosphere cultures
# [11] = LOPAC library screen, 3 μM, MTT, secondary neurosphere cultures, day 7
compound,measurement,setting,value
N[C@H](C(=O)O)c1cc(O)no1 (racemic) [(±)-Ibotenic acid],Z score,[1],−1.650
same,Activity,[2],no
CC(C)Cc1ccc(C(C)C(=O)O)cc1 (racemic) [(±)-Ibuprofen],Z score,[1],−0.262
same,Activity,[2],no
CC(C)NCC(O)c1ccc(O)c(O)c1.Cl (racemic) [(±)-Isopoterenol hydrochloride],Z score,[1],−0.572
same,Activity,[2],no
COc1ccc(CCN(C)CCCC(C#N)(c2cc(OC)c(OC)c(OC)c2)C(C)C)cc1OC.Cl (racemic) [(±)-Methoxyverapamil hydrochloride],Z score,[1],−1.407
same,Activity,[3],no
COCCc1ccc(OCC(O)CNC(C)C)cc1.O=C(O)C(O)C(O)C(=O)O (racemic) [(±)-Metoprolol (+)-tartate],Z score,[1],−0.269
same,Activity,[3],no
C[C@@H]1O[C@H](C[N+](C)(C)C)C[C@H]1O.[Cl-] (racemic) [(±)-Muscarine chloride],Z score,[1],−1.905
same,Activity,[3],no
O=C(O)C1CCCNC1 (racemic) [(±)-Nipecotic acid],Z score,,−0.722
NC[C@H](O)c1ccc(O)c(O)c1.O=C(O)C(O)C(O)C(=O)O (racemic) [(±)-Norepinephrine (+)bitartrate],Z score,[1],0.099
same,Activity,[4],no
COc1cc(C(O)CN)ccc1O.Cl (racemic) [(±)-Normetanephrine hydrochlodride],Z score,[1],−1.796
same,Activity,[3],no
CN1CCN(C2Cc3ccccc3Sc3ccc(Cl)cc32)CC1.O=C(O)/C=C\C(=O)O (racemic) [(±)-Octoclothepin maleate],Z score,[1],1.473
same,Activity,[5],no
Cl.NCC(O)c1ccc(O)cc1 (racemic) [(±)-Octopamine hydrochloride],Z score,[1],−1.567
same,Activity,[4],no
"CCCN1CCOC2c3cc(O)ccc3OCC21.Cl (racemic) [(±)-PD 128,907 hydrochloride]",Z score,[1],1.164
same,Activity,[4],no
CCCN(CCc1ccccc1)C1CCc2c(O)cccc2C1.Cl (racemic) [(±)-PPHT hydrochloride],Z score,[1],−1.915
same,Activity,[5],no
CC(C)NCC(O)COc1cccc2ccccc12.Cl (racemic) [(±)-Propranolol hydrochloride],Z score,[1],0.357
same,Activity,[4],no
"Br.C=CCN1CCc2cc(O)c(O)cc2C(c2ccccc2)C1 (racemic) [(±)-SKF 38393, N-allyl-, hydrobromide]",Activity,,no
same,Z score,[6],−1.590
Cl.Oc1cc2c(cc1O)C(c1ccccc1)CNCC2 (racemic) [(±)-SKF-38393 hydrochloride],Activity,,no
same,Z score,[7],1.280
CC(C)NCC(O)c1ccc(NS(C)(=O)=O)cc1.Cl (racemic) [(±)-Sotalol hydrochloride],Z score,[1],−0.813
same,Activity,[4],no
CNCC(O)c1ccc(O)cc1 (racemic) [(±)-Synephrine],Z score,[1],−0.149
same,Activity,[4],no
O=C1c2c(O)cc(O)cc2O[C@H](c2ccc(O)c(O)c2)[C@H]1O (racemic) [(±)-Taxifolin],Z score,"168 h, 3 µM",1.321
same,Activity,[8],no
O=C1CCC(N2C(=O)c3ccccc3C2=O)C(=O)N1 (racemic) [(±)-Thalidomide],Z score,[6],0.521
same,Activity,[8],no
COc1cc(C(O)C(=O)O)ccc1O (racemic) [(±)-Vanillylmandelic acid],Z score,"168 h, 3 µM",−1.811
same,Activity,[2],no
Cl.OC1CCCCC1N1CCC(c2ccccc2)CC1 (racemic) [(±)-Vesamicol hydrochloride],Z score,[6],−1.967
same,Activity,[8],no
O=C(O)CCCCC1CCSS1 (racemic) [(±)-alpha-Lipoic Acid],Z score,[1],0.342
same,Activity,[4],no
CC(N)(C(=O)O)c1ccc(C(=O)O)cc1 (racemic) [(±)-alpha-Methyl-4-carboxyphenylglycine],Z score,[1],0.727
same,Activity,[3],no
"O=C(O)[C@H]1CCCN[C@H]1C(=O)O (racemic) [(±)-cis-Piperidine-2,3-dicarboxylic acid]",Z score,"168 h, 3 µM",0.155
same,Activity,[4],no
C=CC(N)CCC(=O)O (racemic) [(±)-gamma-Vinyl GABA],Z score,[6],−0.701
same,Activity,[8],no
CCC1(c2ccc(N)cc2)CCC(=O)NC1=O (racemic) [(±)-p-Aminoglutethimide],Activity,,no
same,Z score,[6],−0.444
NC(Cc1ccc(Cl)cc1)C(=O)O (racemic) [(±)-p-Chlorophenylalanine],Z score,[7],−0.247
same,Activity,[2],no
"CCCCS(=N)(=O)CCC(N)C(=O)O (racemic) [DL-Buthionine-[S,R]-sulfoximine]",Z Score,[9],−1.022
same,Z score,[7],−1.022
same,Activity,[2],no
N[C@@H]1CONC1=O (racemic) [DL-Cycloserine],Z Score,[9],−0.2986
same,Z score,[7],−0.299
same,Activity,[2],no
CCCCCCCCCCCCCCCCCC(=O)OC(CC(=O)O)C[N+](C)(C)C.[Cl-] (racemic) [DL-Stearoylcarnitine chloride],Z Score,,0.6378
same,Z score,[1],0.638
same,Activity,[4],no
O=C(O)CNC(=O)C(CS)Cc1ccccc1 (racemic) [DL-Thiorphan],Z Score,[9],−0.3116
same,Z score,[1],−0.312
same,Activity,[4],no
CC(N)(Cc1ccc(O)cc1)C(=O)O (racemic) [DL-alpha-Methyl-p-tyrosine],Z Score,,−3.908
same,Z score,[1],−3.908
same,Activity,[5],yes
CCCCCCCCCCCCCCC[C@H](O)[C@H](N)CO (racemic) [DL-erythro-Dihydrosphingosine],Z Score,[10],−0.0785
same,Z score,[7],−0.079
same,Activity,[2],no
COC(=O)C(N)Cc1ccc(Cl)cc1.Cl (racemic) [DL-p-Chlorophenylalanine methyl ester hydrochloride],Z Score,,0.1276
same,Z score,[7],0.128
same,Activity,[2],no
NC(C(=O)O)C(O)C(=O)O (racemic) [DL-threo-beta-hydroxyaspartic acid],Z Score,,−0.5215
same,Z score,[1],−0.522
same,Activity,[2],no
Oc1cc2c(cc1O)[C@H]1c3ccccc3CN[C@@H]1CC2 (racemic) [Dihydrexidine hydrochloride],Z Score,[9],−0.4153
same,Z score,[7],−0.415
same,Activity,[2],no
COC(=O)N1CCN(C(=O)Cc2ccc(Cl)c(Cl)c2)C(CN2CCCC2)C1.O=C(O)/C=C/C(=O)O (racemic) [GR-89696 fumarate],Z Score,,−0.7788
same,Z score,[1],−0.779
same,Activity,[5],no
NC1C=CC=C(C(=O)O)C1 (racemic) [Gabaculine hydrochloride],Z Score,,−2.256
same,Z score,[6],−2.256
same,Activity,[8],no
C1CNCCN1.COc1cc(C(O)CO)ccc1O.COc1cc(C(O)CO)ccc1O (racemic) [MHPG piperazine],Z Score,[10],0.05276
same,Z score,[1],0.053
same,Activity,[2],no
CCCCCCCCCCCCCCCC(=O)OC(CC(=O)O)C[N+](C)(C)C.[Cl-] (racemic) [Palmitoyl-DL-Camitine chloride],Z score,[1],0.200
same,Activity,[4],no
CCCCCCCCCCCCCCCC(=O)OC(CC(=O)O)C[N+](C)(C)C.[Cl-] (racemic) [Palmitoyl-DL-Carnitine chloride],Z Score,,0.1995
CCCCOc1cc(CC2CNC(=O)N2)ccc1OC (racemic) [Ro 20-1724],Z Score,,0.5874
same,Z score,[7],0.587
same,Activity,[2],no
CCN1CCC[C@H]1CNC(=O)c1c(O)c(Cl)cc(Cl)c1OC.O=C(O)C(O)C(O)C(=O)O (racemic) [S(+)-Raclopride L-tartrate],Z Score,"LOPAC library screen at 3 μM, MTT, secondary neurosphere cultures, screened in singlets",1.901
same,Z score,[1],1.901
same,Activity,[5],no
CC(=O)N[C@H](C(=O)O)C(C)(C)SN=O (racemic) [S-Nitroso-N-acetylpenicillamine],Z Score,[11],−1.645
same,Z score,[1],−1.645
same,Activity,[3],no
COC(=O)C(C)(N)Cc1ccc(O)cc1.Cl (racemic) [alpha-Methyl-DL-tyrosine methyl ester hydrochloride],Z Score,"168 h, 3 µM",0.3703
same,Z score,"168 h, 3 µM",0.370
same,Activity,[5],no
Br.CCCN1CCC2c3cc(O)ccc3CCC21 (racemic) [cis-(±)-8-OH-PBZI hydrobromide],Z score,[1],−2.297
same,Activity,[5],no
CCCCCCCCCCCCCCCC(=O)NCC(COP(=O)([O-])OCC[N+](C)(C)C)OCC (racemic) [rac-2-Ethoxy-3-hexadecanamido-1-propylphosphocholine],Z Score,"168 h, 3 µM",−1.269
same,Z score,"168 h, 3 µM",−1.269
same,Activity,[2],no
CCCCCCCCCCCCCCCCCC(=O)NCC(COP(=O)([O-])OCC[N+](C)(C)C)OCC (racemic) [rac-2-Ethoxy-3-octadecanamido-1-propylphosphocholine],Z Score,[9],−1.112
same,Z score,[1],−1.112
same,Activity,[2],no
"O=C(O)[C@H]1C[C@H](C(=O)O)N1 (relative stereo) [trans-Azetidine-2,4-dicarboxylic acid]",Z Score,"168 h, 3 µM",−0.3491
same,Z score,"168 h, 3 µM",−0.349
same,Activity,[8],no
"CN(C)CCC(c1ccc(Br)cc1)c1ccccn1.O=C(O)/C=C\C(=O)O (single isomer, unassigned; (+)) [(+)-Brompheniramine maleate]",Z Score,[11],−3.976
same,Z score,[1],−3.976
same,Activity,[5],yes
"CC(C)(C)C1(O)CCN2CC3c4ccccc4CCc4cccc(c43)C2C1.Cl (single isomer, unassigned; (+)) [(+)-Butaclamol hydrochloride]",Z Score,[11],−11.27
same,Z score,[1],−11.274
same,Activity,[5],yes
